Experimental data published in patent US20110136819A1, “6-THIOXOPYRIDAZINE DERIVATIVES” (MERCK PATENT GESELLSCHAFT MIT BESCHRÄNKTER HAFTUNG, priority 2007, published 2011).
Where a name gives a salt, the structure may show the parent alone.

These molecules were tested against T1, Met kinase (Homo sapiens, UniProt P08581) (assay: Met kinase inhibition (enzyme assay), flashplate method). Settings: 33P-ATP, substrate pAGLT, 3 hrs at room temperature.
T1 construct: 6His (N); purchased Upstate 14-526; host or cells: Sf21 insect cells (S. frugiperda), baculovirus
T1 sequence (P08581 25-1390): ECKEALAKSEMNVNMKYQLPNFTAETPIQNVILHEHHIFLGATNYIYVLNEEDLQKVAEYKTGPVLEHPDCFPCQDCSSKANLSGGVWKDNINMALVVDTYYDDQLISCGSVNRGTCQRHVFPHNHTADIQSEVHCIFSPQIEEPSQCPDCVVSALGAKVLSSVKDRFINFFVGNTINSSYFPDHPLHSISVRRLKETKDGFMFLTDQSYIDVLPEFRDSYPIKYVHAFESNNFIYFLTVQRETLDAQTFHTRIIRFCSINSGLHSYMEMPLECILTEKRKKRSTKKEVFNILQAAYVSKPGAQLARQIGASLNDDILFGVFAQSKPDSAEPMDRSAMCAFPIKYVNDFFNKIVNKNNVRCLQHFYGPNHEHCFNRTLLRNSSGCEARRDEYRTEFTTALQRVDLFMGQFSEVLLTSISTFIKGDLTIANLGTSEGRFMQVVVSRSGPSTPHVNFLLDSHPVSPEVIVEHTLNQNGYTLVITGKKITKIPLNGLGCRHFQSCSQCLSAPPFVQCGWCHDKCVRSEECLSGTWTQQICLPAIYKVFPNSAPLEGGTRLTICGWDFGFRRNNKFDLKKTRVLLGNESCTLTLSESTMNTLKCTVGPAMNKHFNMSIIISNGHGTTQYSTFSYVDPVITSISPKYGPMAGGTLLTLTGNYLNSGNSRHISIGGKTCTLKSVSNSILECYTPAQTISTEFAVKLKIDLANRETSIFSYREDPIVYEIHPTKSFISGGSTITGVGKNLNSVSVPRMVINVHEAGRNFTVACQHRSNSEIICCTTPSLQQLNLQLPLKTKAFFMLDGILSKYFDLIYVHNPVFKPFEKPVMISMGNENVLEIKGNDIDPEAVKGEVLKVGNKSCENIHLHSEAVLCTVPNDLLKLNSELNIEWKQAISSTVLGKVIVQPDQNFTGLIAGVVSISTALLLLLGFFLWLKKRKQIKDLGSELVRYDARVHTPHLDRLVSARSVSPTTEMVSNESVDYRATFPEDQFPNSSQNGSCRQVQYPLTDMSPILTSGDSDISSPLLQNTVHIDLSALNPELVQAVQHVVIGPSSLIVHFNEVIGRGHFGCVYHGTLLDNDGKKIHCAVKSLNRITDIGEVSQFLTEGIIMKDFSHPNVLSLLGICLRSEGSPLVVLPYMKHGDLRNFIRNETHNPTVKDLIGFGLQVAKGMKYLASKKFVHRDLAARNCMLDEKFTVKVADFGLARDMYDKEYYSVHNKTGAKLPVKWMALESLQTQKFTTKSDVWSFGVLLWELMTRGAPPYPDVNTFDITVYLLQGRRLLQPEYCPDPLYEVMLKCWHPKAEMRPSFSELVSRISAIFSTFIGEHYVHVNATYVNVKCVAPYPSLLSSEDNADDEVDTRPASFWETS
Assay type: biochemical
Description: According to the manufacturer's data (Met, active, upstate, catalogue no. 14-526), Met kinase is expressed for the purposes of protein production in insect cells (Sf21; S. frugiperda) and subsequent affinity-chromatographic purification as “N-terminal 6His-tagged” recombinant human protein in a baculovirus expression vector.
The test plates used are 96-well Flashplate® microtitre plates from Perkin Elmer (Cat. No. SMP200). The components of the kinase reaction described below are pipetted into the assay plate. The Met kinase and the substrate poly Ala-Glu-Lys-Tyr, (pAGLT, 6:2:5:1), are incubated for 3 hrs at room temperature with radioactively labelled ^33P-ATP in the presence and absence of test substances in a total volume of 100 μl. The reaction is terminated using 150 μl of a 60 mM EDTA solution. After incubation for a further 30 min at room temperature, the supernatants are filtered off with suction, and the wells are washed three times with 200 μl of 0.9% NaCl solution each time. The measurement of the bound radioactivity is carried out by means of a scintillation measuring instrument (Topcount NXT, Perkin-Elmer).
The full value used is the inhibitor-free kinase reaction. This should be approximately in the range 6000-9000 cpm. The pharmacological zero value used is staurosporin in a final concentration of 0.1 mM. The inhibitory values (IC50) are determined using the RS1_MTS program.
30 μl of assay buffer 10 μl of substance to be tested in assay buffer with 10% of DMSO 10 μl of ATP (final concentration 1 μM cold, 0.35 μCi of ^33P-ATP) 50 μl of Met kinase/substrate mixture in assay buffer; • (10 ng of enzyme/well, 50 ng of pAGLT/well)
Assay Buffer: • 50 mM HEPES • 3 mM magnesium chloride • 3 μM sodium orthovanadate • 3 mM manganese(II) chloride • 1 mM dithiothreitol (DTT) • pH=7.5 (to be set using sodium hydroxide)
Stop Solution: • 60 mM Titriplex III (EDTA) • ^33P-ATP: Perkin-Elmer; • Met kinase: Upstate, Cat. No. 14-526, Stock 1 μg/10 μl; spec. activity 954 U/mg; • Poly-Ala-Glu-Lys-Tyr, 6:2:5:1: Sigma Cat. No. P1152

IC50 [nM]	SMILES
10 to 1000	Cc1cnc(-c2cccc(Cn3nc(-c4cccc(Cl)c4)ccc3=S)c2)s1 [Compound A4, 6-(3-chlorophenyl)-2-[3-(5-methylthiazol-2-yl)benzyl]-2H-pyridazine-3-thione]
10 to 1000	CN1CCN(CCCOC(=O)Nc2cccc(Cn3nc(-c4cc(F)c(F)c(F)c4)ccc3=S)c2)CC1 [Compound A2, 3-(4-methylpiperazin-1-yl)propyl{3-[6-thioxo-3-(3,4,5-trifluorophenyl)-6H-pyridazin-1-ylmethyl]phenyl}carbamate formate]
10 to 1000	Cc1cnc(-c2cccc(Cn3nc(-c4cc(F)cc(F)c4)ccc3=S)c2)s1 [Compound A3, 6-(3,5-difluorophenyl)-2-[3-(5-methylthiazol-2-yl)-benzyl]-2H-pyridazine-3-thione]

SMILES	IC50 [nM]
CN1CCN(CCCOC(=O)Nc2cccc(Cn3nc(-c4cc(F)cc(F)c4)ccc3=S)c2)CC1 [Compound A1, 3-(4-methylpiperazin-1-yl)propyl{3-[6-thioxo-3-(3,5-difluorophenyl)-6H-pyridazin-1-ylmethyl]phenyl}carbamate]	10 to 1000
